Where two headings read alike, the source gives them in different places.
Columns and labels:
HCV replicon cells = test: HCV replicon FRET assay; type: cell-based; conditions: HCV replicon cells, determined using the FRET assay, read-out: EC50
Protocol: FRET Assay Preparation. The HCV FRET screening assay was performed in 96-well cell culture plates. The FRET peptide (Anaspec, Inc.) (Taliani et al., Anal. Biochem. 1996, 240, 60-67) contains a fluorescence donor, EDANS, near one end of the peptide and an acceptor, DABCYL, near the other end. The fluorescence of the peptide is quenched by […] resonance energy transfer (RET) between the donor and the acceptor, but as the NS3 protease cleaves the peptide the products are released from RET quenching and the fluorescence of the donor becomes apparent. The assay reagent was made as follows: 5× cell Luciferase cell culture lysis reagent from Promega (#E153A) diluted to 1× with dH2O, NaCl added to 150 mM final, the FRET peptide diluted to 20 μM final from a 2 mM stock.
To prepare plates, HCV replicon cells, with or without a Renilla luciferase reporter gene, were trypsinized and plated in a 96-well plate with titrated test compounds added in columns 3 through 12; columns 1 and 2 contained a control compound (HCV control inhibitor), and the bottom row contained cells with DMSO only. The plates were then placed in a CO2 incubator at 37° C.
Assays. Subsequent to addition of the test compounds described above (FRET Assay Preparation), at various times the plate was removed and Alamar blue solution (Trek Diagnostics, #00-100) was added to measure cellular toxicity. After reading in a Cytoflour 4000 instrument (PE Biosystems), plates were rinsed with PBS and then used for FRET assay by the addition of 30 ul of the FRET peptide assay reagent described above (FRET Assay Preparation) per well. The plate was then placed into the Cytoflour 4000 instrument which had been set to 340 excite/490 emission, automatic mode for up to 20 cycles and the plate read in a kinetic mode. Typically, the signal to noise using an endpoint analysis after the reads was at least three-fold. Alternatively, after Alamar blue reading, plates were rinsed with PBS, then used for luciferase assay using the Promega Dual-Glo Luciferase Assay System or the Promega EnduRen Live Cell Substrate assay.
Compound analysis was performed by quantification of the relative HCV replicon inhibition and the relative cytotoxicity values. To calculate cytoxicity values, the average Alamar Blue fluorescence signals from the control wells were set as 100% non-toxic. The individual signals in each of the compound test wells were then divided by the average control signal and multiplied by 100% to determine […]. To calculate the HCV replicon inhibition values, an average background value was obtained from the two wells containing the highest amount of HCV control inhibitor at the end of the assay period. These numbers were similar to those obtained from naïve Huh-7 cells. The background numbers were then subtracted from the average signal obtained from the control wells and this number was used as 100% activity. The individual signals in each of the compound test wells were then divided by the averaged control values after background subtraction and multiplied by 100% to determine percent activity. EC50 values were calculated as the concentration which caused a 50% reduction in FRET or luciferase activity. The two numbers generated for the compound plate, percent cytoxicity and percent activity, were used to determine compounds of interest for further analysis.

[1] = target: T1, HCV NS5B RdRp genotype 1b (Hepatitis C virus genotype 1b, UniProt Q9WMX2); test: Modified HCV NS5B RdRp enzyme assay (preincubation protocol); type: biochemical; conditions: HCV NS5B RdRp; determined using the preincubation protocol; read-out: IC50
T1 construct: The protein was expressed with an 18 amino acid C-terminal truncation to enhance the solubility; made in house; host or cells: E. coli BL21(DE3), pET21a
T1 sequence (Q9WMX2 2420-2992): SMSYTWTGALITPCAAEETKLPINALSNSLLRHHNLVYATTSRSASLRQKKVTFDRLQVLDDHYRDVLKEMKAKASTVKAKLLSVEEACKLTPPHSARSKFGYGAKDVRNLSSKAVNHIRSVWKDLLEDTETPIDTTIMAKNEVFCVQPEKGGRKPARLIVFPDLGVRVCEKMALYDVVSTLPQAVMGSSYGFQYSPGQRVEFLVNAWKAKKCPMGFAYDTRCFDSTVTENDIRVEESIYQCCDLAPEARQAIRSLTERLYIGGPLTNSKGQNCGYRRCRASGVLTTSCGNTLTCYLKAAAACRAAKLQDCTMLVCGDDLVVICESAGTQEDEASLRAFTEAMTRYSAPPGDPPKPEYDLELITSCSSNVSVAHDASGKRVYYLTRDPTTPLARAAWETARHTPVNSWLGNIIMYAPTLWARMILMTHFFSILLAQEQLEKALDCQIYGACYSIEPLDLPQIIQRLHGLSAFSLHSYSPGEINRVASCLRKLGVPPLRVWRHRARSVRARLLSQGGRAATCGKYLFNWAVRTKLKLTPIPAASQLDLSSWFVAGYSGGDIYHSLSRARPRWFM
Protocol: HCV NS5B RdRp cloning, expression, and purification. The cDNA encoding the NS5B protein of HCV, genotype 1b, was cloned into the pET21a expression vector. The protein was expressed with an 18 amino acid C-terminal truncation to enhance the solubility. The E. coli competent cell line BL21(DE3) was used for expression of the protein. Cultures were grown at 37° C. for ˜4 hours until the cultures reached an optical density of 2.0 at 600 nm. The cultures were cooled to 20° C. and induced with 1 mM IPTG. Fresh ampicillin was added to a final concentration of 50 μg/ml and the cells were grown overnight at 20° C.
Cell pellets (3 L) were lysed for purification to yield 15-24 mgs of purified NS5B. The lysis buffer consisted of 20 mM Tris-HCl, pH 7.4, 500 mM NaCl, 0.5% triton X-100, 1 mM DTT, 1 mM EDTA, 20% glycerol, 0.5 mg/ml lysozyme, 10 mM MgCl2, 15 ug/ml deoxyribonuclease I, and Complete TM protease inhibitor tablets (Roche). After addition of the lysis buffer, frozen cell pellets were resuspended using a tissue homogenizer. To reduce the viscosity of the sample, aliquots of the lysate were sonicated on ice using a microtip attached to a Branson sonicator. The sonicated lysate was centrifuged at 100,000×g for 1 hr at 4° C. and filtered through a 0.2 μm filter unit (Corning).
The protein was purified using two sequential chromatography steps: Heparin sepharose CL-6B and polyu sepharose 4B (Pharmacia). The chromatography buffers were identical to the lysis buffer but contained no lysozyme, deoxyribonuclease I, MgCl2 or protease inhibitor and the NaCl concentration of the buffer was adjusted according to the requirements for charging the protein onto the column. Each column was eluted with a NaCl gradient which varied in length from 5-50 column volumes depending on the column type. After the final chromatography step, the resulting purity of the enzyme is >90% based on SDS-PAGE analysis. The enzyme was aliquoted and stored at −80° C.
Standard HCV NS5B RdRp enzyme assay. HCV RdRp genotype 1b assays were run in a final volume of 60 μl in 96 well plates (Corning 3600). The assay buffer is composed of 20 mM Hepes, pH 7.5, 2.5 mM KCl, 2.5 mM MgCl2, 1 mM DTT, 1.6 U RNAse inhibitor (Promega N2515), 0.01 mg/ml BSA (Sigma B6917), and 2% glycerol. All compounds were serially diluted (3-fold) in DMSO and diluted further in water such that the final concentration of DMSO in the assay was 2%. HCV RdRp genotype 1b enzyme was used at a final concentration of 28 nM. A polyA template was used at 6 nM, and a biotinylated oligo-dT 12 primer was used at 180 nM final concentration. Template was obtained commercially (Amersham 27-4110). Biotinylated primer was prepared by Sigma Genosys. 3H-UTP was used at 0.6 μCi (0.29 μM total UTP). Reactions were initiated by the addition of enzyme, incubated at 30° C. for 60 min, and stopped by adding 25 μl of 50 mM EDTA containing SPA beads (4 μg/μl, Amersham RPNQ 0007). Plates were read on a Packard Top Count NXT after >1 hr incubation at room temperature.
Modified HCV NS5B RdRp enzyme assay. A modified enzyme assay was performed essentially as described for the standard enzyme assay except for the following: The biotinylated oligo dT12 primer was precaptured on streptavidin-coated SPA beads by mixing primer and beads in assay buffer and incubating at room temperature for one hour. Unbound primer was removed after centrifugation. The primer-bound beads were resuspended in 20 mM Hepes buffer, pH 7.5 and used in the assay at final concentrations of 20 nM primer and 0.67 μg/μl beads. Order of addition in the assay: enzyme (1.75 nM) was added to diluted compound followed by the addition of a mixture of template (0.36 nM), 3H-UTP (0.6 μCi, 0.29 μM), and primer-bound beads, to initiate the reaction; concentrations given are final. Reactions were allowed to proceed for 4 hours at 30° C.
IC50 values for compounds were determined using seven different [I]. […]

SMILES | EC50 (HCV replicon cells; Hepatitis C virus) [nM] | IC50 [1] [nM] | EC50 (HCV replicon cells) [nM]
COc1ccc2c(c1)C1CC1(NC(=O)C(=O)N1CCCC1)Cn1c-2c(C2CCCCC2)c2ccc(C(=O)NS(=O)(=O)N(C)C)cc21 (centres unmarked) [drawing 32] | 1 to 500 | 1 to 500 | 
COc1ccc2c(c1)[C@@H]1C[C@]1(NC(=O)C(=O)N1C[C@@H](C)O[C@@H](C)C1)Cn1c-2c(C2CCCCC2)c2ccc(C(=O)NS(=O)(=O)N(C)C)cc21 [drawing 34] | 1 to 500 | 1 to 500 | 
COc1ccc2c(c1)[C@@H]1C[C@]1(NC(=O)C(=O)N(C)C)Cn1c-2c(C2CCCCC2)c2ccc(C(=O)NS(=O)(=O)N(C)C)cc21 [drawing 35] | 1 to 500 | 1 to 500 | 
COc1ccc2c(c1)C1CC1(NC(=O)C(=O)N1CCCC1)Cn1c-2c(C2CCCCC2)c2ccc(C(=O)NS(=O)(=O)N(C)C)cc21 (centres unmarked) [drawing 39] |  | 1 to 500 | 1 to 500
COc1ccc2c(c1)[C@@H]1C[C@]1(NC(=O)C(=O)N(C)C)Cn1c-2c(C2CCCCC2)c2ccc(C(=O)NS(=O)(=O)N(C)C)cc21 [drawing 40] | 1 to 500 | 1 to 500 | 
COc1ccc2c(c1)[C@H]1C[C@@]1(NC(=O)C(=O)N(C)C)Cn1c-2c(C2CCCCC2)c2ccc(C(=O)NS(=O)(=O)N(C)C)cc21 [drawing 42] | 1 to 500 | 1 to 500 | 
COc1ccc2c(c1)[C@@H]1C[C@]1(NC(=O)C(=O)N1C[C@@H](C)O[C@@H](C)C1)Cn1c-2c(C2CCCCC2)c2ccc(C(=O)NS(=O)(=O)N(C)C)cc21 [drawing 43] | 1 to 500 | 1 to 500 | 
